Earlier results as cited in patent publication US20230172901A1, “COMPOSITIONS AND METHODS FOR THE PROPHYLAXIS AND TREATMENT OF FIBROTIC AND INFLAMMATORY CONDITIONS” (GRETALS AUSTRALIA PTY LTD, priority 2020, published 2023).

System: IPF patients
Details: prior art, cited from earlier work

Compound | quality of life / respiratory parameters (IPF patients) | survival (IPF patients) | progression-free survival (IPF patients) | side effects
COC(=O)c1ccc2c(c1)NC(=O)/C2=C(\Nc1ccc(N(C)C(=O)CN2CCN(C)CC2)cc1)c1ccccc1 [Nintendanib] | can improve quality of life | do not improve survival |  | 
Cc1ccc(=O)n(-c2ccccc2)c1 [Perfenidone] |  |  | improve progression-free survival | provokes a range of side effects in the skin, gastrointestinal tract, liver, and nervous system
